Test results as given in EPA's ToxValDB 9.5.
Values after ≈ are worked out from the molar mass of the structure shown. Values joined by “and” are separate entries in the source; they are usually repeats but may differ in a detail not shown here. Equal values may be shown once.

Columns and labels:
Bovidae = settings: oral, diet
Sus scrofa = settings: chronic; duration: 14 weeks; oral; diet; M/F; Not specified; no effects
Equus caballus = settings: oral
Bibionidae = settings: chronic/long-term, other
Gallus gallus = settings: subchronic
Oncorhynchus mykiss = settings: for LC50: acute, duration: 96 hours, mortality
Raphanus sp. = settings: acute; duration: 19 days; seedling emergence
Rattus norvegicus = settings: for LD50: acute
Felidae = settings: acute; oral; diet; Cat; neurology
Danio rerio = settings: acute; duration: 96 hours; mortality
Daphnia magna = settings: chronic/long-term; duration: 21 days
Apis mellifera = settings: acute, duration: 48 hours, mortality
Mus musculus = settings: chronic; duration: 2 years; M/F; B6C3F1; body weight
Lolium perenne = settings: acute; growth
Meleagris sp. = settings: subchronic; duration: 84 days; oral; feed; M/F; no effects
[1] = chronic/long-term; development
Coturnix coturnix = settings: chronic; duration: 105 days; oral; diet; mortality
Ovis sp. = settings: chronic; duration: 112 days; oral; diet; no effects
Typhlodromus pyri = assay: LR50; higher = less toxic; settings: not reported; mortality
Cyprinodon variegatus = settings: acute; duration: 96 hours; mortality
Colinus virginianus = settings: acute; oral; mortality
[2] = short-term, oral, feed, mortality
[3] = reproduction developmental, no effects

In the case of CC[C@@H](C(=O)[C@@H](C)[C@@H](O)[C@H](C)[C@@H]1O[C@@H]([C@@H](CC)C(=O)[O-])CC[C@@H]1C)[C@H]1O[C@]2(C=C[C@@H](O)[C@]3(CC[C@@](C)([C@H]4CC[C@](O)(CC)[C@H](C)O4)O3)O2)[C@H](C)C[C@@H]1C.[Na+] [Salinomycin sodium], the LEL (Bovidae; subchronic, duration: 11 weeks, morphology) was 90 mg/kg-day, the NOAEL (Sus scrofa) was ≥ 5 mg/kg-day and the LEL (Equus caballus; other, feed, clinical signs) was ≥ 0.12 mg/kg. For the same compound, the NOEC (Bibionidae) was 6.6 mg/kg, the LEL (Gallus gallus; duration: 5 weeks, oral, diet, M, body weight) was 140 mg/kg-day and the LEL (Gallus gallus; duration: 12 weeks, oral, diet, body weight) was 60 mg/kg-day. The LEL (Gallus gallus; duration: 42 days, organ weight) was 140 mg/kg-day, the LEL (Gallus gallus; duration: 56 days, growth) was 150 mg/kg-day and the LC50 (Oncorhynchus mykiss) was 1.7 µg/mL and 1.14 µg/mL. For the same compound, the LC50 (Raphanus sp.) was 2.6 mg/kg, the NOEL (Oryctolagus sp.; reproduction developmental, duration: 24 days, oral, diet, F, reproduction) was 0.5 mg/kg-day and the NOEL (Oryctolagus sp.; reproduction developmental, reproduction) was 0.5 mg/kg-day. For the same compound, the LEL (Oryctolagus sp.; subchronic, duration: 6 weeks, oral, diet, food consumption) was ≤ 25 mg/kg-day, the LOEL (Rattus norvegicus; chronic, duration: 2 years, oral, diet, M/F, Wistar, clinical chemistry) was 1.5 mg/kg-day and the NOAEL (Rattus norvegicus; subchronic, duration: 90 days, oral, diet, M/F, Sprague-Dawley, organ weight) was 0.6 mg/kg-day. The LEL (Felidae) was ≥ 16 mg/kg-day, the NOAEL (Canidae; acute, duration: 1 days, oral, gavage, Beagle, clinical signs) was 0.5 mg/kg-day and the NOAEL (Canidae; chronic, duration: 1 years, oral, diet, Dog Other, neurology) was 0.5 mg/kg-day. It also gave an NOAEL (Canidae; chronic, duration: 12 months, Dog Other) of 0.5 mg/kg-day, an NOEL (Canidae; chronic, duration: 12 months, oral, capsule, M/F, Dog Other, neurology) of 0.5 mg/kg-day and an NOEL (Canidae; repeat dose other, oral, capsule, Dog Other, clinical signs) of 0.625 mg/kg-day. It also gave an LC50 (Danio rerio) of 6.98 µg/mL.
With CCCCCCCCCCO [1-Decanol] the LD50 (Anas platyrhynchos; acute, oral, unspecified, mortality) was > 4640 mg/kg-day, the LC50 (Anas platyrhynchos; [2]) was > 2550 mg/kg-day and the NOEC (Daphnia magna) was 0.51 mg/L. For the same compound, the NOEC (Oncorhynchus mykiss; chronic/long-term, duration: 28 days, growth) was 0.0064 mg/L, the LD50 (Apis mellifera; dermal) was > 13.8 µg/piece and the LD50 (Rattus norvegicus; oral, mortality) was 4720 mg/kg-day. The NOAEL (Rattus norvegicus; [3]) was 1000 mg/kg-day, the LC50 (Tagia sp.; acute, duration: 14 days, mortality) was > 628 mg/kg and the LC50 (Pimephales promelas; acute, duration: 96 hours, mortality) was 2.4 µg/mL (≈ 15.2 µM).
With CC[C@@]1([C@@H]2O[C@@H]([C@H]3O[C@@](O)(CO)[C@H](C)C[C@@H]3C)C[C@@H]2C)CC[C@H]([C@]2(C)CC[C@]3(C[C@H](O)[C@@H](C)[C@@H]([C@@H](C)[C@@H](OC)[C@H](C)C(=O)[O-])O3)O2)O1.[Na+] [Monensin sodium] the LEL (Bovidae; chronic, duration: 160 days, M/F, no effects) was 110 mg/kg-day, the LEL (Bovidae; short-term, duration: 28 days, M/F, no effects) was 4.5 mg/kg-day and the NOEL (Anas platyrhynchos; short-term, duration: 8 days, oral, feed, body weight) was 62 mg/kg. For the same compound, the LD50 (Equus caballus; acute, gavage, mortality) was 1.38 mg/kg, the LEL (Gallus gallus; duration: 35 days, oral, diet, M/F, no effects) was 125 mg/kg-day and the LC50 (Oncorhynchus mykiss) was 1.88 µg/mL. It also gave an NOEC (Oncorhynchus mykiss; chronic/long-term, duration: 50 days, development) of 0.05 mg/L, an NOAEL (Oryctolagus sp.; reproduction developmental) of 0.3 mg/kg-day and an NOEL (Oryctolagus sp.; reproduction developmental, duration: 23 days, oral, gavage, F, body weight) of 0.3 mg/kg-day. The NOEL (Mus musculus) was 1.2 mg/kg-day, the NOEL (Canidae; repeat dose other, oral, Dog Other, clinical signs) was 0.345 mg/kg-day and the NOEC (Lolium perenne) was 2 mg/kg. The NOEC (Tagia sp.; chronic/long-term, duration: 56 days, reproduction) was 50 mg/kg and the LEL (Meleagris sp.) was 100 mg/kg.
CC(=O)O.CCCCCCCCCCCCN=C(N)N [Dodecylguanidine acetate] gave an LD50 (Anas platyrhynchos; acute, oral, unspecified) of 857 mg/kg-day, an NOEL (Bird; reproductive) of 17 mg/kg-day and an LC50 (Bird; short-term, oral, feed) of 208 mg/kg-day. The LD50 (Rattus norvegicus) was 851 mg/kg-day and the NOAEL [1] was 45 mg/kg-day.
Compound ClC1=C(Cl)[C@]2(Cl)[C@@H]3[C@H]4C[C@H]([C@@H]5O[C@H]45)[C@@H]3[C@@]1(Cl)C2(Cl)Cl [Endrin] has an LEL (Bovidae; chronic, duration: 112 days, no effects) of 5 mg/kg-day, an NOAEL (Anas platyrhynchos; subchronic, duration: 12 weeks, oral, feed, M/F, mortality) of 0.5 mg/kg and an LOAEL (Coturnix coturnix) of 0.5 mg/kg-day. The NOAEL (Gallus gallus; duration: 50 days, oral, diet, mortality) was 1 mg/kg-day, the LOAEL (Oncorhynchus mykiss; chronic/long-term, duration: 163 days, oral, feed, clinical chemistry) was 4.3 µg/kg-day and the NOAEL (Canidae; chronic, duration: 18 months, oral, diet, Dog Other, organ weight) was 1 mg/kg-day. The LEL (Ovis sp.) was 5 mg/kg-day.
In the case of CC(C)[C@@H](C)[C@@H](O)[C@H](O)[C@@H](C)[C@H]1CC[C@H]2[C@@H]3COC(=O)[C@H]4C[C@H](O)[C@H](O)C[C@]4(C)[C@H]3CC[C@]12C, the LR50 (Typhlodromus pyri) was 0.28 g/ha, the LD50 (Apis mellifera; dermal) was > 10 µg/piece and the LD50 (Apis mellifera; oral, unspecified) was > 92.2 µg/piece. For the same compound, the LD50 (Rattus norvegicus; oral, mortality) was > 5000 mg/kg-day, the NOEL (Rattus norvegicus; [3]) was ≥ 1000 mg/kg-day and the LC50 (Danio rerio) was > 5 µg/mL.
ClC=CCCl [1,3-Dichloropropene] gave an NOEC (Anas platyrhynchos; reproductive) of 36 mg/kg-day, an LD50 (Anas platyrhynchos; [2]) of 1080 mg/kg-day and an NOEC (Bibionidae; duration: 28 days) of 0.369 mg/L. For the same compound, the LC50 (Cyprinodon variegatus) was 0.87 µg/mL (≈ 7.84 µM), the LD50 (Colinus virginianus) was 92 mg/kg-day and the LD50 (Rattus norvegicus; oral, mortality) was 130 mg/kg-day. It also gave an NOAEL (Rattus norvegicus; chronic, duration: 2 years, oral, diet, histopathology: neoplastic) of 2.5 mg/kg-day and an NOEC (Pimephales promelas; chronic/long-term, duration: 33 days, growth) of 0.0069 mg/L.
